Laboratory results reported in PMC8957246, “Synthesis and diverse biological activity profile of triethylammonium isatin-3-hydrazones” (ADMET & DMPK, 2022).
Where a name gives a salt, the structure may show the parent alone. Read-outs that look alike come from different tables or passages of the source. Marks after values point to notes of the source that are not given here. Values belong to the molecule of their own block, whether it stands above or below them.

Columns and labels:
[1] = test system: activated partial thromboplastin time (intrinsic coagulation pathway); assay: Anticoagulant activity, clotting test APTT; parameters: species or system human; settings: concentration 5×10^–4 g/mL; median (25-75 percentiles)
Protocol: (§1) The in vitro experiments were performed using the blood of healthy male donors aged 18-24 years (total 54 donors). The study was approved by the Ethics Committee of Federal State Budgetary Educational Institution of Higher Education at the Bashkir State Medical University of the Ministry of Health of Russian Federation (No.2 dated 17.10.2012). Informed consent was obtained from all participants before blood sampling. The blood was collected from the cubital vein using the system of vacuum blood collection BD Vacutainer® (Becton, Dickinson and Company, USA). A 3.8 % sodium citrate solution in a 9:1 ratio was used as a venous blood stabiliser. The study of the effect on platelet aggregation was performed using the Born method using the aggregometer «AT-02» (SPC Medtech, Russia). The assessment of antiplatelet activity of the studied compounds and reference preparations was started with the final concentration of 2×10^–3 mol/L. Adenosine diphosphate (ADP; 20 μg/mL) and collagen (5 mg/mL) manufactured by Tehnologia-Standart Company, Russia, were used as inducers of aggregation. The study on the anticoagulant activity was performed by standard recognised clotting tests using the optical two-channel automatic analyser of blood coagulation Solar CGL 2110 (CJSC SOLAR, Belarus). The following parameters were studied: activated partial thromboplastin time (APTT), prothrombin time (PT) and fibrinogen concentrations according to the Clauss method. The determination of anticoagulant activity of the studied compounds and reference preparation was performed in a concentration of 5×10^–4 g/mL using the reagents manufactured by Tehnologia-Standart Company (Barnaul, Russia). The results of the study were processed using the statistical package Statistica 10.0 (StatSoft Inc, USA). The Shapiro–Wilk’s test was used to check the normality of actual data distribution. The form of distribution of the data obtained differed from the normal one; therefore, non-parametric methods were used for further analysis. The data were presented as medians and 25 and 75 percentiles. Analysis of variance was conducted using Kruskal–Wallis test. A p value of 0.05 was considered statistically significant.

[2] = test system: platelets (collagen-induced aggregation); assay: Platelet aggregation (Born method), collagen-induced; type: cell-based; settings: Homo sapiens, collagen 5 mg/mL, final concentration 2×10^–3 mol/L, median (25-75 percentiles), read-out: Platelets aggregation, % of control, Collagen
Protocol: as §1

human erythrocytes = assay: Hemolytic activity; type: cell-based; settings: compared within series 3a-g and reference drug
Protocol: Hemolytic activity of test compounds was estimated by comparing the optical density of a solution containing the test compound with that of blood at 100 % hemolysis. The experiments were carried out as described earlier.
An important step in the determination of the biological activity of new chemical compounds is the assessment of their cytotoxic action in relation to mammalian cells. The ability of the investigated compound to cause the destruction of human erythrocytes illustrates its toxic effect on the internal environment of the body. The hemolysis assay is a simple screening test, the results of which can help in the study of cytotoxicity in more complex models. Such experimental models can be the cell lines obtained from various organs and tissues of a person and allowing to adequately assessing the effect of new potential drugs on cell metabolism.

[3] = test system: Enterococcus faecalis ATCC 29212; assay: Antimicrobial activity, serial dilution (MIC/MBC), Ef; type: cell-based; settings: ATCC29212
Protocol: (§2) The antimicrobial activity of the test compounds was determined by the serial dilution technique in Muller Hinton Broth 2 and in Sabouradu broth for fungi. The cultures used for testing included Gram-positive bacteria: Staphylococcus aureus ATCC 6538P FDA 209P, Bacillus cereus ATCC 10702 NCTC 8035, Enterococcus faecalis ATCC 29212; Gram-negative bacteria: Escherichia coli ATCC 25922, Pseudomonas aeruginosa ATCC 9027, and fungi: Trichophyton mentagrophytes var. gypseum 1773, and Candida albicans ATCC 10231; methicillin-resistant strains of S. aureus (MRSA) was obtained from hospital patients with chronic tonsillitis in the Republican Clinical Hospital (Kazan, Russia). The bacterial load was 3.0 × 10^5 cfu/ml. The fungi load was 2.0 × 10^3 cfu/ml. The results were recorded every 24 h for 5-7 days. Cultures were incubated at 37 °C. The experiment was repeated three times. […] The minimum inhibitory concentration (MIC) was defined as the minimum concentration of a compound that inhibits the growth of the corresponding test microorganism. The growth of bacteria, as well as the absence of the growth due to the bacteriostatic action of compounds, were recorded.
(§3) Synthesized compounds were further evaluated for antimicrobial activity against test microorganisms: Staphylococcus aureus ATCC 209p (Sa), Bacillus cereus ATCC 8035 (Bc), Escherichia coli CDC F-50 (Ec), Enterococcus faecalis (Ef), Pseudomonas aeruginosa ATCC 9027, Aspergillus niger BKMF-1119, Trichophyton mentagrophytes var. gypseum 1773, and Candida albicans 855-653 including methicillin-resistant strains of S. aureus (MRSA 1 and MRSA 2). The minimum inhibitory (MIC) and minimum bactericidal (MBC) concentrations of ammonium salts were determined against these pathogens (Table 1). Due to the lack of activity of compounds 3a-g against Gram-negative bacterial strains and some fungi, the corresponding data are not shown.

[4] = test system: methicillin-resistant strains of S. aureus (MRSA-2); assay: Antimicrobial activity, serial dilution (MIC/MBC), MRSA-2; type: cell-based; settings: Staphylococcus aureus
Protocol: as §2, §3

[5] = test system: Staphylococcus aureus ATCC 6538P FDA 209P; assay: Antimicrobial activity, serial dilution (MIC/MBC), Sa; type: cell-based; settings: Staphylococcus aureus
Protocol: as §2, §3

[6] = test system: Bacillus cereus ATCC 10702 NCTC 8035; assay: Antimicrobial activity, serial dilution (MIC/MBC), Bc; type: cell-based
Protocol: as §2, §3

[7] = test system: Candida albicans ATCC 10231; assay: Antimicrobial activity, serial dilution (MIC/MBC), Ca; type: cell-based; settings: ATCC10231
Protocol: as §2, §3

[8] = test system: platelets (ADP-induced aggregation); assay: Platelet aggregation (Born method), ADP-induced; type: cell-based; settings: Homo sapiens, ADP 20 μg/mL, final concentration 2×10^–3 mol/L, median (25-75 percentiles), read-out: Platelets aggregation, % of control, ADP
Protocol: as §1

[9] = test system: methicillin-resistant strains of S. aureus (MRSA-1); assay: Antimicrobial activity, serial dilution (MIC/MBC), MRSA-1; type: cell-based; settings: Staphylococcus aureus
Protocol: as §2, §3

[10] = test system: Chang liver cell line (Human liver cells); settings: reference drug compared with 3a-g

- melting point: 176 °C
Molecule: CC[N+](CC)(CC)CC(=O)N/N=C1\C(=O)N(Cc2cc(C(C)(C)C)c(O)c(C(C)(C)C)c2)c2ccc([N+](=O)[O-])cc21 (as salt: bromide) [Compound 3f, 2-(2-(1-(3,5-Di-tert-butyl-4-hydroxybenzyl)-5-nitro-2-oxoindolin-3-ylidene)hydrazinyl)-N,N,N-triethyl-2-oxoethanammonium bromide]

- melting point: 177 °C
Molecule: CC[N+](CC)(CC)CC(=O)N/N=C1\C(=O)N(Cc2cc(C(C)(C)C)c(O)c(C(C)(C)C)c2)c2c(Br)cc(Cl)cc21 (as salt: bromide) [Compound 3g, 2-(2-(1-(3,5-Di-tert-butyl-4-hydroxybenzyl)-5-chloro-7-bromo-2-oxoindolin-3-ylidene)hydrazinyl)-N,N,N-triethyl-2-oxoethanammonium bromide]

- MIC [3]: > 500 µM
- MIC [4]: 25.4 ± 2.3 µM
- MIC [5]: 3.2 ± 0.2 µM
- MIC [6]: 25.4 ± 1.9 µM
- MIC ([6]; Bacillus cereus, read-out: MIC): ~25 µM
- MIC [7]: > 500 µM
- MIC [9]: 50.8 ± 4.1 µM
Molecule: CC[N+](CC)(CC)CC(=O)N/N=C1\C(=O)N(Cc2cc(C(C)(C)C)c(O)c(C(C)(C)C)c2)c2c(C)cccc21 [Compound 3b, 2-(2-(1-(3,5-Di-tert-butyl-4-hydroxybenzyl)-7-methyl-2-oxoindolin-3-ylidene)hydrazinyl)-N,N,N-triethyl-2-oxoethanammonium bromide]
- APTT, % of control [1]: +7.3 (6.5-9.6) ^*, ^† % of control
- inhibition at 2000 µM [2]: 10.3%
- toxicity to red blood cells (in words) (human erythrocytes): least toxic
- MBC [3]: > 500 µM
- MBC [4]: 50.8 µM
- MBC ([5]; read-out: MBC (converted)): 25.4 µM
- MBC ([6]; Bacillus cereus): 203 µM
- MBC [7]: > 500 µM
- inhibition at 2000 µM [8]: 9.7%
- MBC [9]: 203 µM

Further lines, the molecule ahead of its results:

Molecule: COc1cccc2c1C(=O)c1c(O)c3c(c(O)c1C2=O)C[C@@](O)(C(=O)CO)C[C@@H]3O[C@H]1C[C@H](N)[C@H](O)[C@H](C)O1 [doxorubicin]
- toxicity to liver cells (in words) [10]: much more toxic

Molecule: gramicidin S [reference compound]
- toxicity to red blood cells (in words) (human erythrocytes): much more toxic
